Marks after values point to notes of the source that are not given here.
System: severe traumatic brain injury (sTBI) in rats
Assay: HPLC of purine-pyrimidine / energy metabolites in rat brain after sTBI (Example 4)
Type: in vivo
Method: The effects of daily sub-cutaneous injections of dextran sulfate on glutamate excitotoxicity and mitochondrial function after severe traumatic brain injury (sTBI) in rats were evaluated by high-performance liquid chromatography (HPLC) analysis of frozen brain samples.
The experimental protocol used in this study was approved by the Ethical Committee of the Catholic University of Rome, according to international standards and guidelines for animal care. Male Wistar rats of 300-350 g body weight (b.w.) were fed with standard laboratory diet and water ad libitum in a controlled environment.
They were divided into three groups: • 1) n=6 animals subjected to sTBI, with drug administration after 30 minutes and sacrifice at 2 days post-TBI (Acute phase 1) • 2) n=6 animals subjected to severe-TBI, with drug administration after 30 minutes and sacrifice at 7 days post-TBI (Acute phase 2). • 3) n=6 animals subjected to severe-TBI, with drug administration after 3 days and sacrifice at 7 days post-TBI (Chronic phase).
As the anesthetic mixture, animals received 35 mg/kg b.w. ketamine and 0.25 mg/kg b.w. midazolam by i.p. injection. sTBI was induced by dropping a 450 g weight from 2 m height on to the rat head that had been protected by a metal disk previously fixed on the skull, according to the “weight drop” impact acceleration model (Marmarou et al., A new model of diffuse brain injury in rats. Part I: Pathophysiology and biomechanics. J Neurosurg. 1994; 80: 291-300). […] At the end of each period of treatment, rats were anesthetized again and then immediately sacrificed.
The drug treatment was a subcutaneous injection of 0.5 ml of dextran sulfate (Tikomed AB, Viken, Sweden, WO 2016/076780; 15 mg/kg) and administered according to the aforementioned schematic protocol.
An in vivo craniectomy was performed in all animals during anesthesia, after carefully removing the rat's skull, the brain was exposed and removed with a surgical spatula and quickly dropped in liquid nitrogen. After the wet weight (w.w.) determination, tissue preparation was affected as previously disclosed (Tavazzi et al., Cerebral oxidative stress and depression of energy metabolism correlate with severity of diffuse brain injury in rats. Neurosurgery. 2005; 56: 582-589; Vagnozzi et al., Temporal window of metabolic brain vulnerability to concussions: mitochondrial-related impairment-part I. Neurosurgery. 2007; 61: 379-388; Tavazzi et al., Temporal window of metabolic brain vulnerability to concussions: oxidative and nitrosative stresses-part II. Neurosurgery. 2007; 61: 390-395; Amorini et al., Severity of experimental traumatic brain injury modulates changes in concentrations of cerebral free amino acids. J Cell Mol Med. 2017; 21: 530-542.). Briefly, whole brain homogenization was performed with 7 ml of ice-cold, nitrogen-saturated, precipitating solution composed by CH3CN+10 mM KH2PO4, pH 7.40, (3:1; v:v), and using an Ultra-Turrax set at 24,000 rpm/min (Janke & Kunkel, Staufen, Germany). After centrifugation at 20,690×g, for 10 min at 4° C., the clear supernatants were saved, pellets were supplemented with 3 ml of the precipitating solution and homogenized again as described above. A second centrifugation was performed (20,690×g, for 10 min at 4° C.), pellets were saved, supernatants combined with those previously obtained, extracted by vigorous agitation with a double volume of HPLC-grade CHCl3 and centrifuged as above. The upper aqueous phases containing water-soluble low-molecular weight compounds were collected, subjected to chloroform washings for two more times (this procedure allowed the removal of all the organic solvent and of any lipid soluble compound from the buffered tissue extracts), adjusted in volumes with 10 mM KH2PO4, pH 7.40, to have ultimately aqueous 10% tissue homogenates and saved at −80° C. until assayed. […]

[1] = Acute phase 2 (15 mg/kg s.c. 30 min after sTBI, sacrifice 7 days post-TBI)
[2] = Chronic phase (15 mg/kg s.c. 3 days after sTBI, sacrifice 7 days post-TBI)
[3] = rat brain after sTBI, after administration

## dextran sulfate
[1]
  UDP-GalNac concentration: 19.90 ± 3.12^a,e nmol/g (w.w.)
  UDP-Glc concentration: 44.44 ± 7.59^j nmol/g (w.w.)
  UDP-GlcNac concentration: 130.65 ± 28.41^a nmol/g (w.w.)
  UMP concentration: 138.73 ± 32.01^b nmol/g (w.w.)
  UTP concentration: 146.71 ± 32.68^e nmol/g (w.w.)
  acetyl-CoA concentration: 36.86 ± 4.11^e nmol/g (w.w.)
  adenine concentration: 58.16 ± 6.36^a,f nmol/g (w.w.)
  ascorbic acid concentration: 3512.58 ± 224.62^a,e nmol/g (w.w.)
  creatinine concentration: 37.27 ± 5.82^a,e,j nmol/g (w.w.)
  cytidine concentration: 16.18 ± 4.21^e nmol/g (w.w.)
  cytosine concentration: 15.70 ± 4.10^f nmol/g (w.w.)
  guanine concentration: 4.73 ± 1.07 nmol/g (w.w.)
  guanosine concentration: 17.90 ± 3.24^j nmol/g (w.w.)
  hypoxanthine concentration: 12.90 ± 2.58^a,j nmol/g (w.w.)
  inosine concentration: 85.52 ± 20.36^e nmol/g (w.w.)
  malonyl-CoA concentration: 11.29 ± 2.27^b nmol/g (w.w.)
  orotic acid concentration: 13.34 ± 3.65^a nmol/g (w.w.)
  thymidine concentration: 0.49 ± 0.20^f nmol/g (w.w.)
  uracil concentration: 19.40 ± 7.52^a,e nmol/g (w.w.)
  uric acid concentration: 19.17 ± 2.15^a,h,i nmol/g (w.w.)
  uridine concentration: 63.02 ± 9.66^b,e nmol/g (w.w.)
  xanthine concentration: 10.41 ± 2.11^f nmol/g (w.w.)
  β-pseudouridine concentration: 13.26 ± 3.16^a,e,j nmol/g (w.w.)
[2]
  ADO concentration: 89.97 ± 12.98^a nmol/g (w.w.)
  ADP concentration: 315.53 ± 46.53^a nmol/g (w.w.)
  ADP-ribose concentration: 173.94 ± 8.45^a nmol/g (w.w.)
  AMP concentration: 90.01 ± 21.24^a nmol/g (w.w.)
  ATP concentration: 1381.03 ± 212.64^a nmol/g (w.w.)
  CDP choline concentration: 8.37 ± 2.19 nmol/g (w.w.)
  CDP concentration: 23.55 ± 6.45^a nmol/g (w.w.)
  CMP concentration: 20.51 ± 3.73^a,f nmol/g (w.w.)
  CTP concentration: 25.23 ± 2.93^a,f nmol/g (w.w.)
  CoA-SH concentration: 27.58 ± 6.24^f nmol/g (w.w.)
  GDP concentration: 173.05 ± 28.68^a,e nmol/g (w.w.)
  GDP glucose concentration: 43.85 ± 5.06^b nmol/g (w.w.)
  GMP concentration: 148.56 ± 31.21^a nmol/g (w.w.)
  GSH concentration: 2608.67 ± 358.07^a,e nmol/g (w.w.)
  GSSG concentration: 231.08 ± 44.34^b,f nmol/g (w.w.)
  GTP concentration: 290.92 ± 34.68^a,f nmol/g (w.w.)
  IMP concentration: 99.29 ± 13.82^a nmol/g (w.w.)
  MDA concentration: 11.62 ± 3.90^a,e nmol/g (w.w.)
  NAA concentration: 6375.36 ± 974.12^a,e nmol/g (w.w.)
  NADH concentration: 11.78 ± 3.32^e nmol/g (w.w.)
  NADPH concentration: 7.34 ± 2.65^f nmol/g (w.w.)
  NADP^+ concentration: 16.44 ± 2.66^a,f nmol/g (w.w.)
  NAD^+ concentration: 301.13 ± 29.90^a nmol/g (w.w.)
  NO2 concentration: 217.67 ± 55.04^a nmol/g (w.w.)
  NO3 concentration: 241.27 ± 18.84^e nmol/g (w.w.)
  UDP concentration: 57.40 ± 5.88^a,f nmol/g (w.w.)
  UDP-Gal concentration: 122.29 ± 12.15 nmol/g (w.w.)
  UDP-GalNac concentration: 21.84 ± 2.80^a,e nmol/g (w.w.)
  UDP-Glc concentration: 35.79 ± 3.45^b nmol/g (w.w.)
  UDP-GlcNac concentration: 129.42 ± 15.88^b nmol/g (w.w.)
  UMP concentration: 103.11 ± 29.79 nmol/g (w.w.)
  UTP concentration: 136.80 ± 33.25^f nmol/g (w.w.)
  acetyl-CoA concentration: 35.68 ± 6.55^e nmol/g (w.w.)
  adenine concentration: 52.94 ± 8.59^a,f nmol/g (w.w.)
  ascorbic acid concentration: 3375.03 ± 856.41^a,e nmol/g (w.w.)
  creatinine concentration: 51.25 ± 10.17^a,f nmol/g (w.w.)
  cytidine concentration: 14.71 ± 2.83^e nmol/g (w.w.)
  cytosine concentration: 15.58 ± 2.50^b,f nmol/g (w.w.)
  guanine concentration: 5.31 ± 1.04^b nmol/g (w.w.)
  guanosine concentration: 28.87 ± 7.60^a,f nmol/g (w.w.)
  hypoxanthine concentration: 17.97 ± 4.49^a nmol/g (w.w.)
  inosine concentration: 105.81 ± 25.57^f nmol/g (w.w.)
  malonyl-CoA concentration: 10.00 ± 1.95^b nmol/g (w.w.)
  orotic acid concentration: 12.05 ± 1.50^a nmol/g (w.w.)
  thymidine concentration: 0.71 ± 0.11 nmol/g (w.w.)
  uracil concentration: 16.57 ± 2.99^a,f nmol/g (w.w.)
  uric acid concentration: 27.77 ± 3.60^a nmol/g (w.w.)
  uridine concentration: 63.28 ± 3.37^f nmol/g (w.w.)
  xanthine concentration: 9.35 ± 0.83^f nmol/g (w.w.)
  β-pseudouridine concentration: 18.62 ± 2.80^a nmol/g (w.w.)
Both the acute and chronic phases of sTBI
  cerebral nitrate concentrations: significantly decreased
[3]
  cerebral GSH level: significant improvement
  cerebral MDA levels: significant reduction
  cerebral NAA and its substrates: significant improvements
  cerebral ascorbic acid level: significant improvement

From patent publication US20240082296A1, “TREATMENT OF MUSCLE ATROPHY USING DEXTRAN SULFATE” (TX MEDIC AB, priority 2020, published 2024)
